Data from US20230085307A1, “PYRIDAZINONE COMPOUND AND HERBICIDE” (NISSAN CHEMICAL CORPORATION, priority 2019, published 2023).

Experiments:
barnyard grass [1] = assay: Test Example 3: herbicidal effect by foliage application, Wagner pot (Table 18, symbol H); type: in vivo, barnyard grass (Echinochloa crus-galli); conditions: amount of applied herbicide 320 g/ha
Procedure, shortened: (§1)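 Plants were sown in alluvial soil held under 0.1–0.5 cm standing water and grown 14 days in a greenhouse at 25–30 °C. An emulsifiable formulation, water-diluted to the set dose, was then sprayed onto the foliage, and effects were scored three weeks later using previously defined criteria.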

Chinese sprangletop = assay: Test Example 3: herbicidal effect by foliage application, Wagner pot (Table 18, symbol D); type: in vivo, chinese sprangletop (Leptochloa chinensis); conditions: amount of applied herbicide 320 g/ha
Procedure, shortened: as §1

rice flat sedge = assay: Test Example 3: herbicidal effect by foliage application, Wagner pot (Table 18, symbol E); type: in vivo, rice flat sedge (Cyperus iria); conditions: amount of applied herbicide 320 g/ha
Procedure, shortened: as §1

southern crabgrass [2] = assay: Test Example 4: herbicidal effect by soil treatment (Table 19, symbol F); type: in vivo, southern crabgrass (Digitaria ciliaris); conditions: amount of applied herbicide 320 g/ha
Procedure, shortened: (§2)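 Pre-emergence style soil spray: seeds under ~1.5 cm sterilized diluvial soil received a uniform coat of emulsion diluted to the predetermined herbicide amount. Greenhouse 25–30° C; readout at week three on previously defined criteria.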

green foxtail [3] = assay: Test Example 4: herbicidal effect by soil treatment (Table 19, symbol G); type: in vivo, green foxtail (Setaria viridis); conditions: amount of applied herbicide 320 g/ha
Procedure, shortened: as §2

barnyard grass [4] = assay: Test Example 4: herbicidal effect by soil treatment (Table 19, symbol H); type: in vivo, barnyard grass (Echinochloa crus-galli); conditions: amount of applied herbicide 320 g/ha
Procedure, shortened: as §2

wild oat [5] = assay: Test Example 4: herbicidal effect by soil treatment (Table 19, symbol I); type: in vivo, wild oat (Avena fatua); conditions: amount of applied herbicide 320 g/ha
Procedure, shortened: as §2

blackgrass [6] = assay: Test Example 4: herbicidal effect by soil treatment (Table 19, symbol J); type: in vivo, blackgrass (Alopecurus myosuroides); conditions: amount of applied herbicide 320 g/ha
Procedure, shortened: as §2

Italian ryegrass [7] = assay: Test Example 4: herbicidal effect by soil treatment (Table 19, symbol K); type: in vivo, Italian ryegrass (Lolium multiflorum); conditions: amount of applied herbicide 320 g/ha
Procedure, shortened: as §2

windgrass [8] = assay: Test Example 4: herbicidal effect by soil treatment (Table 19, symbol L); type: in vivo, windgrass (Apera spica-venti); conditions: amount of applied herbicide 320 g/ha
Procedure, shortened: as §2

velvetleaf [9] = assay: Test Example 4: herbicidal effect by soil treatment (Table 19, symbol M); type: in vivo, velvetleaf (Abutilon theophrasti); conditions: amount of applied herbicide 320 g/ha
Procedure, shortened: as §2

redroot pigweed [10] = assay: Test Example 4: herbicidal effect by soil treatment (Table 19, symbol N); type: in vivo, redroot pigweed (Amaranthus retroflexus); conditions: amount of applied herbicide 320 g/ha
Procedure, shortened: as §2

lambsquarters [11] = assay: Test Example 4: herbicidal effect by soil treatment (Table 19, symbol O); type: in vivo, lambsquarters (Chenopodium album); conditions: amount of applied herbicide 320 g/ha
Procedure, shortened: as §2

chickweed [12] = assay: Test Example 4: herbicidal effect by soil treatment (Table 19, symbol P); type: in vivo, common chickweed (Stellaria media); conditions: amount of applied herbicide 320 g/ha
Procedure, shortened: as §2

persian speedwell [13] = assay: Test Example 4: herbicidal effect by soil treatment (Table 19, symbol R); type: in vivo, Persian speedwell (Veronica persica); conditions: amount of applied herbicide 320 g/ha
Procedure, shortened: as §2

southern crabgrass [14] = assay: Test Example 5: herbicidal effect by foliage application, plastic box (Table 20, symbol F); type: in vivo, southern crabgrass (Digitaria ciliaris); conditions: foliage application, 320 g/ha, evaluated three weeks after application
Procedure, shortened: (§3)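 Plants were sown into sterilized diluvial soil under about 1.5 cm cover and kept in a greenhouse at 25° C. to 30° C. Fourteen days on, foliage received an even spray of the diluted emulsion. Herbicidal or crop effect was judged three weeks afterwards.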

green foxtail [15] = assay: Test Example 5: herbicidal effect by foliage application, plastic box (Table 20, symbol G); type: in vivo, green foxtail (Setaria viridis); conditions: foliage application, 320 g/ha, evaluated three weeks after application
Procedure, shortened: as §3

barnyard grass [16] = assay: Test Example 5: herbicidal effect by foliage application, plastic box (Table 20, symbol H); type: in vivo, barnyard grass (Echinochloa crus-galli); conditions: foliage application, 320 g/ha, evaluated three weeks after application
Procedure, shortened: as §3

wild oat [17] = assay: Test Example 5: herbicidal effect by foliage application, plastic box (Table 20, symbol I); type: in vivo, wild oat (Avena fatua); conditions: foliage application, 320 g/ha, evaluated three weeks after application
Procedure, shortened: as §3

blackgrass [18] = assay: Test Example 5: herbicidal effect by foliage application, plastic box (Table 20, symbol J); type: in vivo, blackgrass (Alopecurus myosuroides); conditions: foliage application, 320 g/ha, evaluated three weeks after application
Procedure, shortened: as §3

Italian ryegrass [19] = assay: Test Example 5: herbicidal effect by foliage application, plastic box (Table 20, symbol K); type: in vivo, Italian ryegrass (Lolium multiflorum); conditions: foliage application, 320 g/ha, evaluated three weeks after application
Procedure, shortened: as §3

windgrass [20] = assay: Test Example 5: herbicidal effect by foliage application, plastic box (Table 20, symbol L); type: in vivo, windgrass (Apera spica-venti); conditions: foliage application, 320 g/ha, evaluated three weeks after application
Procedure, shortened: as §3

velvetleaf [21] = assay: Test Example 5: herbicidal effect by foliage application, plastic box (Table 20, symbol M); type: in vivo, velvetleaf (Abutilon theophrasti); conditions: foliage application, 320 g/ha, evaluated three weeks after application
Procedure, shortened: as §3

redroot pigweed [22] = assay: Test Example 5: herbicidal effect by foliage application, plastic box (Table 20, symbol N); type: in vivo, redroot pigweed (Amaranthus retroflexus); conditions: foliage application, 320 g/ha, evaluated three weeks after application
Procedure, shortened: as §3

lambsquarters [23] = assay: Test Example 5: herbicidal effect by foliage application, plastic box (Table 20, symbol O); type: in vivo, lambsquarters (Chenopodium album); conditions: foliage application, 320 g/ha, evaluated three weeks after application
Procedure, shortened: as §3

chickweed [24] = assay: Test Example 5: herbicidal effect by foliage application, plastic box (Table 20, symbol P); type: in vivo, common chickweed (Stellaria media); conditions: foliage application, 320 g/ha, evaluated three weeks after application
Procedure, shortened: as §3

persian speedwell [25] = assay: Test Example 5: herbicidal effect by foliage application, plastic box (Table 20, symbol R); type: in vivo, Persian speedwell (Veronica persica); conditions: foliage application, 320 g/ha, evaluated three weeks after application
Procedure, shortened: as §3

| SMILES | herbicidal effect on H: barnyard grass (barnyard grass [1]) | herbicidal effect on D: Chinese sprangletop (Chinese sprangletop) | herbicidal effect on E: rice flat sedge (rice flat sedge) | herbicidal effect on F: southern crabgrass (southern crabgrass [2]) | herbicidal effect on G: green foxtail (green foxtail [3]) | herbicidal effect on H: barnyard grass (barnyard grass [4]) | herbicidal effect on I: wild oat (wild oat [5]) | herbicidal effect on J: blackgrass (blackgrass [6]) | herbicidal effect on K: Italian ryegrass (Italian ryegrass [7]) | herbicidal effect on L: windgrass (windgrass [8]) | herbicidal effect on M: velvetleaf (velvetleaf [9]) | herbicidal effect on N: redroot pigweed (redroot pigweed [10]) | herbicidal effect on O: lambsquarters (lambsquarters [11]) | herbicidal effect on P: chickweed (chickweed [12]) | herbicidal effect on R: persian speedwell (persian speedwell [13]) | herbicidal effect on F: southern crabgrass (criteria 0-5) (southern crabgrass [14]) | herbicidal effect on G: green foxtail (criteria 0-5) (green foxtail [15]) | herbicidal effect on H: barnyard grass (criteria 0-5) (barnyard grass [16]) | herbicidal effect on I: wild oat (criteria 0-5) (wild oat [17]) | herbicidal effect on J: blackgrass (criteria 0-5) (blackgrass [18]) | further results |
| --- | --- | --- | --- | --- | --- | --- | --- | --- | --- | --- | --- | --- | --- | --- | --- | --- | --- | --- | --- | --- | --- |
| Cc1nn(C)c(=O)c(-c2c(-c3cccc(C(F)(F)F)c3)sc3ccc(F)cc23)c1O [2-231] | 4 (Herbicidal rate of 70% or more and less than 90%) | 3 (Herbicidal rate of 40% or more and less than 70%) | 5 (Herbicidal rate of 90% or more (almost completely withered)) | 0 (Herbicidal rate of 5% or less (almost no effect)) | 0 (Herbicidal rate of 5% or less (almost no effect)) | 0 (Herbicidal rate of 5% or less (almost no effect)) | 0 (Herbicidal rate of 5% or less (almost no effect)) | 0 (Herbicidal rate of 5% or less (almost no effect)) | 0 (Herbicidal rate of 5% or less (almost no effect)) | 0 (Herbicidal rate of 5% or less (almost no effect)) | 0 (Herbicidal rate of 5% or less (almost no effect)) | 0 (Herbicidal rate of 5% or less (almost no effect)) | 1 (Herbicidal rate of 5% or more and less than 20%) | 3 (Herbicidal rate of 40% or more and less than 70%) | 0 (Herbicidal rate of 5% or less (almost no effect)) | 0 (Herbicidal rate of 5% or less (almost no effect)) | 3 (Herbicidal rate of 40% or more and less than 70%) | 2 (Herbicidal rate of 20% or more and less than 40%) | 0 (Herbicidal rate of 5% or less (almost no effect)) | 0 (Herbicidal rate of 5% or less (almost no effect)) | herbicidal effect on K: Italian ryegrass (criteria 0-5) (Italian ryegrass [19]): 0 (Herbicidal rate of 5% or less (almost no effect)); herbicidal effect on L: windgrass (criteria 0-5) (windgrass [20]): 4 (Herbicidal rate of 70% or more and less than 90%); herbicidal effect on M: velvetleaf (criteria 0-5) (velvetleaf [21]): 4 (Herbicidal rate of 70% or more and less than 90%); herbicidal effect on N: redroot pigweed (criteria 0-5) (redroot pigweed [22]): 3 (Herbicidal rate of 40% or more and less than 70%); herbicidal effect on O: lambsquarters (criteria 0-5) (lambsquarters [23]): 3 (Herbicidal rate of 40% or more and less than 70%); herbicidal effect on P: chickweed (criteria 0-5) (chickweed [24]): 5 (Herbicidal rate of 90% or more (almost completely withered)); herbicidal effect on R: persian speedwell (criteria 0-5) (persian speedwell [25]): 4 (Herbicidal rate of 70% or more and less than 90%) |
| CSc1cccc(-c2sc3ccc(F)cc3c2-c2c(O)c(C)nn(C)c2=O)c1 [2-240] | 4 (Herbicidal rate of 70% or more and less than 90%) | 3 (Herbicidal rate of 40% or more and less than 70%) | 4 (Herbicidal rate of 70% or more and less than 90%) | 4 (Herbicidal rate of 70% or more and less than 90%) | 5 (Herbicidal rate of 90% or more (almost completely withered)) | 2 (Herbicidal rate of 20% or more and less than 40%) | 1 (Herbicidal rate of 5% or more and less than 20%) | 0 (Herbicidal rate of 5% or less (almost no effect)) | 0 (Herbicidal rate of 5% or less (almost no effect)) | 0 (Herbicidal rate of 5% or less (almost no effect)) | 1 (Herbicidal rate of 5% or more and less than 20%) | 4 (Herbicidal rate of 70% or more and less than 90%) | 3 (Herbicidal rate of 40% or more and less than 70%) | 1 (Herbicidal rate of 5% or more and less than 20%) | 5 (Herbicidal rate of 90% or more (almost completely withered)) | 5 (Herbicidal rate of 90% or more (almost completely withered)) | 5 (Herbicidal rate of 90% or more (almost completely withered)) | 3 (Herbicidal rate of 40% or more and less than 70%) | 5 (Herbicidal rate of 90% or more (almost completely withered)) | 3 (Herbicidal rate of 40% or more and less than 70%) | herbicidal effect on K: Italian ryegrass (criteria 0-5) (Italian ryegrass [19]): 3 (Herbicidal rate of 40% or more and less than 70%); herbicidal effect on L: windgrass (criteria 0-5) (windgrass [20]): 4 (Herbicidal rate of 70% or more and less than 90%); herbicidal effect on M: velvetleaf (criteria 0-5) (velvetleaf [21]): 4 (Herbicidal rate of 70% or more and less than 90%); herbicidal effect on N: redroot pigweed (criteria 0-5) (redroot pigweed [22]): 5 (Herbicidal rate of 90% or more (almost completely withered)); herbicidal effect on O: lambsquarters (criteria 0-5) (lambsquarters [23]): 5 (Herbicidal rate of 90% or more (almost completely withered)); herbicidal effect on P: chickweed (criteria 0-5) (chickweed [24]): 5 (Herbicidal rate of 90% or more (almost completely withered)); herbicidal effect on R: persian speedwell (criteria 0-5) (persian speedwell [25]): 5 (Herbicidal rate of 90% or more (almost completely withered)) |
